# Assays:
# [1] = system: N-Ras transformed melanoma cells LOXIMVI; assay: Cell viability, EPE peptide compared with PLX4032; assay type: cell-based; conditions: EPE 10 μM, PLX4032 1 μM, 1% FCS
# Description: (§1) FIGS. 3A-3B illustrate that EPE peptide prevents proliferation of cancer but not normal cells. (A) Effect of the EPE peptide on the proliferation of various cell lines. Sixteen cancer and four “normal” immortalized cell lines were treated with either EPE or scrambled peptides as described above. Viable cells were assayed by Methylene Blue at 48 or 72 hours after cell seeding. The data from at least three independent experiments is presented as percent of the amount of viable cells/initial cell number, where initial cell number was considered as 100. (B) Comparison of the effects of the EPE-peptide and Raf inhibitor PLX4032 on cell viability. NHEM-Ad, LOXIMVI, A2352, Hela MDA-MB-231, and DU-145 cells were treated with EPE peptide, scrambled peptide, (10 μM), PLX4032 (1 μM), DMSO control, or no treatment at 1% FCS. The number of cells was detected as above. The graphs present the kinetic of cell growth at the indicated times. All experiments were repeated 3 times in triplicates.
# (§2) All cells, except of MCF-10A, were seeded into 12-well cell plates in 1% FBS medium. MCF-10A cells were seeded in their complete medium diluted 5 fold. DMSO, Scr peptide, EPE peptide, or U0126 (final concentration of 10 μM each) were added to the appropriated wells four hours later. Every day medium was changed to fresh one containing the same agents. The number of viable cells was measured by Methylene Blue assay at 72 h after cell seeding. Shortly, cells were fixed with 4% Formaldehyde for 2 h at 23° C., washed once with 0.1M Borate Buffer pH 8.5 and stained with of 1% Methylene Blue in 0.1M Borate Buffer for 10 min. Color was extracted by adding 0.1 M HCl for 3 h at 23° C., and examined at 595 nm. For time course experiments, viable cells were measured at 0, 24, 48, 72 and 96 h after cell seeding. For dose response experiments we treaded the cells with 0.1, 1, 3, 10, or 30 μM of peptides for 72 h, as described above.
# [2] = system: all other transformed cell lines examined (A2352, Hela, MDA-MB-231, DU-145); assay: Cell viability, EPE peptide compared with PLX4032; assay type: cell-based; conditions: EPE 10 μM, PLX4032 1 μM, 1% FCS
# Description: as §1, §2
# B-Raf mutated melanomas = assay: Apoptosis (TUNEL, PARP-1 cleavage); assay type: cell-based; conditions: 24 h
# Description: (§3) FIGS. 5A-5D illustrate that the EPE peptide leads to apoptosis of B-Raf mutant cancer cells. (A) The EPE peptide affects the morphology of treated cells. The indicated cells were treated with either the EPE or Scr peptides, DMSO, or taxol for 72 h, and photographed by a light microscope. (B) The EPE peptide induces apoptosis in melanoma cells detected by TUNEL. The indicated cell lines were treated as in A for 24 h. Apoptosis was detected by TUNEL staining. Images were obtained by florescence microscope. (C) Quantification of B. The bar-graph represents percent of apoptotic cells calculated in 10 different fields. (D) The EPE peptide induces apoptosis of melanoma cells detected by PARP cleavage. The indicated cell lines were treated as in (A) for 24 h. Cell extracts were subjected to Western blotting with αPARP Ab.
# (§4) Cells were seeded on glass cover slips in a 12-wells plate at 25% confluence with medium containing 1% of FCS. Peptides (EPE or Scr), DMSO, or U0126 in a final concentration of 10 μM, were added after 4 h (considered as time “0”). TUNEL staining was performed at 24 h after the treatment according to manufacturer instruction (Roche Applied Science, Nutley, N.J., USA). Briefly, the medium was removed and cells were fixed with 3% of paraformaldehyde (1.5 h, 23° C.). Cells were rinsed twice with PBS and permeabilized with 0.1% Triton X-100 and 0.1% sodium citrate for 2 min on ice. Cells were rinsed twice with PBS and 28 μl of TUNEL reaction mixture (25 μl of TUNEL label, 2.5 μl of TUNEL enzyme and 0.1 mg/ml of DAPI) was added directly on top of the slide, cells were incubated for 16 h in humid box at 37° C. Cover slips were rinsed three times with PBS and mounted on microscope slides. The slides were dried and then subjected to image acquisition by a florescence microscope. For morphology assay, the cells were seeded at approximately 25% confluence in 6 cm plates with medium containing 1% FCS. Peptides (EPE and Scr) or DMSO or U0126 in a final concentration of 10 μM, were added after 4 h (considered to be time 0), 24 h and 48 h. Images were obtained by a light microscope (Olympus BX51) after 72 h.
# [3] = system: other cell lines examined; assay: Apoptosis (TUNEL, PARP-1 cleavage); assay type: cell-based
# Description: as §3, §4
# [4] = system: low passage A2352 B-Raf melanoma xenograft; assay: Tumor xenograft growth; assay type: in vivo, SCID mice; conditions: tail vein administration
# Description: FIGS. 6A-6B illustrate that the EPE peptide prevents the growth of human tumor xenografts. CD-1 nude mice were inoculated with MDA-MB-231, LOXIMVI and HCT-116 cells, and SKID mice were inoculated with A2352 cells. Upon tumors establishment, the mice were treated intravenously with the DMSO as well as EPE or Scr peptides in the indicated doses, 3 times a week. The results are averages of 5 mice in each experimental group. The X, Y, Z dimensions of the tumors were measured with a caliper, and the volume was calculated accordingly. The significance of all experiments was at least P<0.001. (B) The EPE peptide prevents tumor recurrence on melanoma xenograft. SCID mice were inoculated with A2352 cells. Upon establishment of tumors mice were treated intravenously with 15 mg/kg EPE peptide (n=7) or intraperitonealy with 15 mg/kg PLX4032 (n=5), at the indicated dose 3 times a week. Tumor size was recorded at the same time using a caliper. Following 3 weeks of treatment, mice were kept for further evaluation monitoring for any tumor recurrence of the effective treated melanoma xenografts. Experiment was concluded 110 days post inoculation (11 weeks after the last treatment) and the overall state of the animals was evaluated. sac=sacrificed, recur=recurrence, met=metastasis.
# Tumor dimensions were measured with a digital sliding caliper.
# [5] = mouse, in vivo
# Description: Female SCID mice (Harlan), 5-6 weeks of age, were inoculated s.c. into the flank region with 10^7 A2352 cells in 150 μl mixture of PBS with matrigel (2:1). Tumors were allowed to develop to the size of 5-6.5 mm in diameter (50˜110 mm^3 volume) and then the animals were randomly allocated to different treatment groups. The peptides (100 mM stock in DMSO), were diluted to the necessary concentration in PBS and boiled for 5 minutes. Then, DMSO, Scr or EPE peptides were administered by i.v. injection into the tail vein (150 μl/mouse, 3 times a week). Tumor dimensions were measured with a digital sliding caliper. Tumor volume was calculated using the formula: V=D1×D2×D3×π/6, where D1, D2, D3—represent the three mutually orthogonal growth diameters. To assess any signs of systemic toxicity, body weight was monitored, and recorded at the end of the experiment.
# Tumor xenografts, lungs, livers, kidneys and hearts of animals from different treatment groups were removed and subjected for histological analysis by staining of 5 μm paraffin embedded tissue slides with H&E, and examination by light microscope. […] Briefly, paraffin embedded blocks of tumors after different treatments were cut at 4 μm thickness and stained with ERK Abs, followed by second antibodies conjugated to peroxidase and DAB staining. Representative fields of each specimen were photographed at ×20 and ×40 magnifications.
sequence,measurement,setting,value
GQLNHILGILGEPEQED (Synthetic peptide (EPE)) [EPE peptide],viability,[1],able to reduce the viability
same,effect on viability relative to PLX4032,[2],"at least as good, or even better, than that of PLX4032"
same,"apoptosis (TUNEL, PARP-1)",B-Raf mutated melanomas,enhanced apoptosis
same,apoptosis relative to Taxol,B-Raf mutated melanomas,as strong as the apoptosis induced by Taxol
same,apoptosis / cell death,[3],No apoptosis was detected
same,time to complete eradication of melanoma xenograft,[4],≤ 2 weeks
same,"size or structure of the kidneys, livers and hearts",[5],did not affect
same,structure of the lungs,[5],not affected

# — patent US10240133B2, “ERK-derived peptides and uses thereof” (Yeda Research and Development Co. Ltd., priority 2013, dated 2019)
